Values quoted from earlier work as cited in patent publication US11596597B2, “Depot formulation” (Cipla Limited, priority 2018, dated 2023).

Conditions: stated in words, no test described

| solubility in water | Compound |
| --- | --- |
| freely soluble | 7,8,9,10-tetrahydro-6,10-methano-6H-pyrazino [2,3-h] [3]-benzazepine, (2R, 3R)-2,3-dihydroxybutanedioate [Varenicline salt] |
| practically insoluble | c1cnc2cc3c(cc2n1)[C@@H]1CNC[C@H]3C1 [varenicline base] |
